Measurements reported in patent US10590078B2, “Sodium channel blockers” (Daewoong Pharmaceutical Co., Ltd., priority 2015, dated 2020).

Each compound was assayed against human sodium ion channel 1.7 (hNav1.7) (Homo sapiens, UniProt Q15858) (assay: Blocking effect against sodium ion channel Nav1.7, IonFlux16 auto patch clamp in hNav1.7 HEK293 cells). Details: not given.
Assay type: cell-based

Chain of human sodium ion channel 1.7 (hNav1.7) (Q15858 whole entry): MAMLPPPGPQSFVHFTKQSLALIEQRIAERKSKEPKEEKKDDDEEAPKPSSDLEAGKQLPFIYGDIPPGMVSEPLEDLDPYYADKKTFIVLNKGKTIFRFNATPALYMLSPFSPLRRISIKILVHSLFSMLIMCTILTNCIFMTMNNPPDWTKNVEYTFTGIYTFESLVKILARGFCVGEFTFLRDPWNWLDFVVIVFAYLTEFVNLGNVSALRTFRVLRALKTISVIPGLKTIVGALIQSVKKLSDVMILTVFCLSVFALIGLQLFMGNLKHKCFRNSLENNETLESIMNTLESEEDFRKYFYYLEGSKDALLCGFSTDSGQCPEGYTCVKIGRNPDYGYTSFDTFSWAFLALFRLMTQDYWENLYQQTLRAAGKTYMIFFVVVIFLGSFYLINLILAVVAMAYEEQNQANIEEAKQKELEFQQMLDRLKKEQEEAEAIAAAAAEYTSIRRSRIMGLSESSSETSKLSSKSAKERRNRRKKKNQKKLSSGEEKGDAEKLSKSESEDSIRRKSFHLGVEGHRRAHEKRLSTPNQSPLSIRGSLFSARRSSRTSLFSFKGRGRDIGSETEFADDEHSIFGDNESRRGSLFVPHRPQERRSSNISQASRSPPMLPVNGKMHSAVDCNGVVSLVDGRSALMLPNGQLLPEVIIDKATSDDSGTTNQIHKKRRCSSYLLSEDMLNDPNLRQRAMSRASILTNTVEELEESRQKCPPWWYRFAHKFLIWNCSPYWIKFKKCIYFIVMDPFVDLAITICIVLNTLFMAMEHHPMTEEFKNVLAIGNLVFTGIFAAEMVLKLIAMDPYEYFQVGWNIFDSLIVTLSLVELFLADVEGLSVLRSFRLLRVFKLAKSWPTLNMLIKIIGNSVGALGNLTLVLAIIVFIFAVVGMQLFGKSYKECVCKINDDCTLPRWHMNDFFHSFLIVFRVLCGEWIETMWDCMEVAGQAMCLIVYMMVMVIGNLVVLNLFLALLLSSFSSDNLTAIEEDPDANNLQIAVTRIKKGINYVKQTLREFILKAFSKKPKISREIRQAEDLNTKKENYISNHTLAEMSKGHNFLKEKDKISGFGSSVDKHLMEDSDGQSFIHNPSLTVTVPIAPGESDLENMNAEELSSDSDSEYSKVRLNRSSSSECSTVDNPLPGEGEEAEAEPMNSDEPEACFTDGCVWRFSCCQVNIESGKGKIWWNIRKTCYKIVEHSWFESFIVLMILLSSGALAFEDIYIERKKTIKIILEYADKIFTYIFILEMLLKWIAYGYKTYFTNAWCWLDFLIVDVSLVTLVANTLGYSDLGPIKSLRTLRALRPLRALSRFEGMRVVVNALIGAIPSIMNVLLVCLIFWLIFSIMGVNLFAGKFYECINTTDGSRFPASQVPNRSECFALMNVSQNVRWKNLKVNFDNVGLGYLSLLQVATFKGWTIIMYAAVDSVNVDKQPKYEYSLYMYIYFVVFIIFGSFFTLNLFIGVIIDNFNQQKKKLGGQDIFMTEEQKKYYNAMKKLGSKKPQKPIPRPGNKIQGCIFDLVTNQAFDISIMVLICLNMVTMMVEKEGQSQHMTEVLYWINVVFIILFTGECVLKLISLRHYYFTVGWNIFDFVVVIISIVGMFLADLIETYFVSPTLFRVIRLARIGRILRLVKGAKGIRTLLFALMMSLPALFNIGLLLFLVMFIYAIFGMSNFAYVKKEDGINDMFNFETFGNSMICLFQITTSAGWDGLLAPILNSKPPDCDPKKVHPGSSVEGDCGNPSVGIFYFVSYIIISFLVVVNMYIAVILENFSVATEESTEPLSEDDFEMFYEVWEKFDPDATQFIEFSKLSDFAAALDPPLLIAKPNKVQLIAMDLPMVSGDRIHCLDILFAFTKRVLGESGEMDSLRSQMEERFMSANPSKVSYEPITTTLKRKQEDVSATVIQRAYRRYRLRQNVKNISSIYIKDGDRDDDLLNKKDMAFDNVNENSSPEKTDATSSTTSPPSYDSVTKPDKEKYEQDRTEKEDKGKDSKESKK

Structure (SMILES) | IC50 [µM]
Cc1cccc(-c2nn(-c3cc(F)c(C(=O)NS(C)(=O)=O)cc3Cl)c3ccc(Cl)cc23)c1 [Example 52, 5-chloro-4-(5-chloro-3-(m-tolyl)-1H-indazol-1-yl)-2-fluoro-N-(methylsulfonyl)benzamide] | 0.039

Same assay, conditions: hNav1.7 HEK293 cells; inhibition of peak current after 50 seconds treatment; eight concentrations; read-out: IC50

Structure (SMILES) | IC50 [µM]
CS(=O)(=O)NC(=O)c1cc(Cl)c(-n2nc(Cl)c3c(Cl)c(OCc4ccccc4F)ccc32)cc1F [Example 32, 5-chloro-4-(3,4-dichloro-5-((2-fluorobenzyl)oxy)-1H-indazol-1-yl)-2-fluoro-N-(methylsulfonyl)benzamide] | 0.158
CC(Oc1ccc2c(c1)c(Cl)nn2-c1cc(F)c(C(=O)NS(C)(=O)=O)cc1Cl)c1ccccc1 (centres unmarked) [Example 33, 5-chloro-4-(3-chloro-5-(1-phenylethoxy)-1H-indazol-1-yl)-2-fluoro-N-(methylsulfonyl)benzamide] | 0.214
CS(=O)(=O)NC(=O)c1cc(Cl)c(-n2nc(Cl)c3cc(OCC4CCCCC4)ccc32)cc1F [Example 34, 5-chloro-4-(3-chloro-5-(cyclohexylmethoxy)-1H-indazol-1-yl)-2-fluoro-N-(methylsulfonyl)benzamide] | 0.211
CS(=O)(=O)NC(=O)c1cc(Cl)c(-n2nc(Cl)c3cc(OCc4ccc5ccccc5c4)ccc32)cc1F [Example 35, 5-chloro-4-(3-chloro-5-(naphthalen-2-ylmethoxy)-1H-indazol-1-yl)-2-fluoro-N-(methylsulfonyl)benzamide] | 0.076
CS(=O)(=O)NC(=O)c1cc(Cl)c(-n2nc(Cl)c3cc(OCc4ccc(F)cc4)ccc32)cc1F [Example 36, 5-chloro-4-(3-chloro-5-((4-fluorobenzyl)oxy)-1H-indazol-1-yl)-2-fluoro-N-(methylsulfonyl)benzamide] | 0.087
CS(=O)(=O)NC(=O)c1cc(Cl)c(-n2nc(Cl)c3cc(OCc4ccccc4F)ccc32)cc1F [Example 37, 5-chloro-4-(3-chloro-5-((2-fluorobenzyl)oxy)-1H-indazol-1-yl)-2-fluoro-N-(methylsulfonyl)benzamide] | 0.159
CS(=O)(=O)NC(=O)c1cc(Cl)c(-n2nc(Cl)c3cc(OCc4cccc(F)c4)ccc32)cc1F [Example 38, 5-chloro-4-(3-chloro-5-((3-fluorobenzyl)oxy)-1H-indazol-1-yl)-2-fluoro-N-(methylsulfonyl)benzamide] | 0.098
CC(Oc1ccc2c(c1)c(Cl)nn2-c1cc(F)c(C(=O)NS(C)(=O)=O)cc1Cl)c1ccc(F)cc1 (centres unmarked) [Example 39, 5-chloro-4-(3-chloro-5-(1-(4-fluorophenyl)ethoxy)-1H-indazol-1-yl)-2-fluoro-N-(methylsulfonyl)benzamide] | 0.28
CS(=O)(=O)NC(=O)c1cc(Cl)c(-n2nc(Cl)c3cc(OCCc4ccccc4)ccc32)cc1F [Example 40, 5-chloro-4-(3-chloro-5-phenethoxy-1H-indazol-1-yl)-2-fluoro-N-(methylsulfonyl)benzamide] | 0.19
CC(C)COc1ccc2c(cnn2-c2cc(F)c(C(=O)NS(C)(=O)=O)cc2Cl)c1 [Example 41, 5-chloro-2-fluoro-4-(5-isobutoxy-1H-indazol-1-yl)-N-(methylsulfonyl)benzamide] | 6.34
CC(C)COc1ccc2c(c1)c(Cl)nn2-c1cc(F)c(C(=O)NS(C)(=O)=O)cc1Cl [Example 42, 5-chloro-4-(3-chloro-5-isobutoxy-1H-indazol-1-yl)-2-fluoro-N-(methylsulfonyl)benzamide] | 0.181
CN(C)S(=O)(=O)NC(=O)c1cc(Cl)c(-n2nc(Cl)c3cc(OCc4ccccc4)ccc32)cc1F [Example 43, 4-(5-(benzyloxy)-3-chloro-1H-indazol-1-yl)-5-chloro-N—(N,N-dimethylsulfamoyl)-2-fluorobenzamide] | 0.2
CS(=O)(=O)NC(=O)c1ccc(-n2nc(Cl)c3cc(OCc4ccccc4)ccc32)c(Cl)c1 [Example 44, 4-(5-(benzyloxy)-3-chloro-1H-indazol-1-yl)-3-chloro-N-(methylsulfonyl)benzamide] | 0.166
CS(=O)(=O)NC(=O)c1cc(Cl)c(-n2nc(Cl)c3ccc(OCc4ccccc4)cc32)cc1F [Example 45, 4-(6-(benzyloxy)-3-chloro-1H-indazol-1-yl)-5-chloro-2-fluoro-N-(methylsulfonyl)benzamide] | 0.134
COC(=O)c1nn(-c2cc(F)c(C(=O)NS(C)(=O)=O)cc2Cl)c2cc(OCc3ccccc3)ccc12 [Example 46, methyl 6-(benzyloxy)-1-(2-chloro-5-fluoro-4-((methylsulfonyl)carbamoyl)phenyl)-1H-indazole-3-carboxylate] | > 10
CS(=O)(=O)NC(=O)c1cc(Cl)c(-n2nc(Cl)c3cc(Oc4ccc(F)nc4)ccc32)cc1F [Example 47, 5-chloro-4-(3-chloro-5-((6-fluoropyridin-3-yl)oxy)-1H-indazol-1-yl)-2-fluoro-N-(methylsulfonyl)benzamide] | 0.437
CS(=O)(=O)NC(=O)c1cc(Cl)c(-n2nc(-c3ccccc3)c3cc(Cl)ccc32)cc1F [Example 48, 5-chloro-4-(5-chloro-3-phenyl-1H-indazol-1-yl)-2-fluoro-N-(methylsulfonyl)benzamide] | 0.048

Structure (SMILES) | IC50 [µM]
CS(=O)(=O)NC(=O)c1cc(Cl)c(-n2nc(-c3ccncc3)c3cc(Cl)ccc32)cc1F [Example 49, 5-chloro-4-(5-chloro-3-(pyridin-4-yl)-1H-indazol-1-yl)-2-fluoro-N-(methylsulfonyl)benzamide] | 2.22
CS(=O)(=O)NC(=O)c1cc(Cl)c(-n2nc(-c3cccnc3)c3cc(Cl)ccc32)cc1F [Example 50, 5-chloro-4-(5-chloro-3-(pyridin-3-yl)-1H-indazol-1-yl)-2-fluoro-N-(methylsulfonyl)benzamide] | 0.913
CS(=O)(=O)NC(=O)c1cc(Cl)c(-n2nc(-c3cncc(Cl)c3)c3cc(Cl)ccc32)cc1F [Example 51, 5-chloro-4-(5-chloro-3-(5-chloropyridin-3-yl)-1H-indazol-1-yl)-2-fluoro-N-(methylsulfonyl)benzamide] | 0.187
CS(=O)(=O)NC(=O)c1cc(Cl)c(-n2nc(-c3ccccc3F)c3cc(Cl)ccc32)cc1F [Example 53, 5-chloro-4-(5-chloro-3-(2-fluorophenyl)-1H-indazol-1-yl)-2-fluoro-N-(methylsulfonyl)benzamide] | 0.033
CS(=O)(=O)NC(=O)c1cc(Cl)c(-n2nc(-c3cccc(F)c3)c3cc(Cl)ccc32)cc1F [Example 54, 5-chloro-4-(5-chloro-3-(3-fluorophenyl)-1H-indazol-1-yl)-2-fluoro-N-(methylsulfonyl)benzamide] | 0.026
CS(=O)(=O)NC(=O)c1cc(Cl)c(-n2nc(-c3ccc(F)cc3)c3cc(Cl)ccc32)cc1F [Example 55, 5-chloro-4-(5-chloro-3-(4-fluorophenyl)-1H-indazol-1-yl)-2-fluoro-N-(methylsulfonyl)benzamide] | 0.051
CS(=O)(=O)NC(=O)c1cc(Cl)c(-n2nc(-c3ccc(F)cc3F)c3cc(Cl)ccc32)cc1F [Example 56, 5-chloro-4-(5-chloro-3-(2,4-difluorophenyl)-1H-indazol-1-yl)-2-fluoro-N-(methylsulfonyl)benzamide] | 0.04
COc1ncccc1-c1nn(-c2cc(F)c(C(=O)NS(C)(=O)=O)cc2Cl)c2ccc(Cl)cc12 [Example 57, 5-chloro-4-(5-chloro-3-(2-methoxypyridin-3-yl)-1H-indazol-1-yl)-2-fluoro-N-(methylsulfonyl)benzamide] | 0.123
COc1ccccc1-c1nn(-c2cc(F)c(C(=O)NS(C)(=O)=O)cc2Cl)c2ccc(Cl)cc12 [Example 58, 5-chloro-4-(5-chloro-3-(2-methoxyphenyl)-1H-indazol-1-yl)-2-fluoro-N-(methylsulfonyl)benzamide] | 0.098
COc1ccc(-c2nn(-c3cc(F)c(C(=O)NS(C)(=O)=O)cc3Cl)c3ccc(Cl)cc23)cc1 [Example 59, 5-chloro-4-(5-chloro-3-(4-methoxyphenyl)-1H-indazol-1-yl)-2-fluoro-N-(methylsulfonyl)benzamide] | 0.108
CS(=O)(=O)NC(=O)c1cc(Cl)c(-n2nc(-c3ccccc3C#N)c3cc(Cl)ccc32)cc1F [Example 60, 5-chloro-4-(5-chloro-3-(2-cyanophenyl)-1H-indazol-1-yl)-2-fluoro-N-(methylsulfonyl)benzamide] | > 10
CS(=O)(=O)NC(=O)c1cc(Cl)c(-n2nc(-c3cccc(C#N)c3)c3cc(Cl)ccc32)cc1F [Example 61, 5-chloro-4-(5-chloro-3-(3-cyanophenyl)-1H-indazol-1-yl)-2-fluoro-N-(methylsulfonyl)benzamide] | 0.096
CS(=O)(=O)NC(=O)c1cc(Cl)c(-n2nc(-c3ccc(C#N)cc3)c3cc(Cl)ccc32)cc1F [Example 62, 5-chloro-4-(5-chloro-3-(4-cyanophenyl)-1H-indazol-1-yl)-2-fluoro-N-(methylsulfonyl)benzamide] | 0.554
CS(=O)(=O)NC(=O)c1cc(Cl)c(-n2nc(-c3ccccc3C(F)(F)F)c3cc(Cl)ccc32)cc1F [Example 63, 5-chloro-4-(5-chloro-3-(2-(trifluoromethyl)phenyl)-1H-indazol-1-yl)-2-fluoro-N-(methylsulfonyl)benzamide] | 0.041
CS(=O)(=O)NC(=O)c1cc(Cl)c(-n2nc(-c3cccc(C(F)(F)F)c3)c3cc(Cl)ccc32)cc1F [Example 64, 5-chloro-4-(5-chloro-3-(3-(trifluoromethyl)phenyl)-1H-indazol-1-yl)-2-fluoro-N-(methylsulfonyl)benzamide] | 0.094
CS(=O)(=O)NC(=O)c1cc(Cl)c(-n2nc(-c3ccc(C(F)(F)F)cc3)c3cc(Cl)ccc32)cc1F [Example 65, 5-chloro-4-(5-chloro-3-(4-(trifluoromethyl)phenyl)-1H-indazol-1-yl)-2-fluoro-N-(methylsulfonyl)benzamide] | 0.028
CS(=O)(=O)NC(=O)c1cc(Cl)c(-n2nc(-c3ccc(Cl)cc3F)c3cc(Cl)ccc32)cc1F [Example 66, 5-chloro-4-(5-chloro-3-(4-chloro-2-fluorophenyl)-1H-indazol-1-yl)-2-fluoro-N-(methylsulfonyl)benzamide] | 0.016
